# Data as given in patent US20100311581A1, “Azolylmethyloxiranes, use Thereof and Agents Containing the Same” (BASF SE, priority 2007, published 2010).
# Where two headings read alike, the source gives them in different places.
# Tests used:
# Septoria tritici = experiment: Activity against Septoria leaf blotch Septoria tritici in the microtiter test (Septtr); assay type: cell-based
# Leptosphaeria nodorum = experiment: Activity against glume blotch Leptosphaeria nodorum in the microtiter test (Leptno); assay type: cell-based
# Pyriculana oryzae = assay type: cell-based
# Phakopsora pachyrhizi = experiment: Curative activity against soya rust caused by Phakopsora pachyrhizi (Phakpa K1), greenhouse; assay type: in vivo; conditions: curative spray on soya seedlings, visual rating after 14 days in greenhouse, untreated 90% attack
# [1] = Comparison tests, microtiter test
# [2] = microtiter plate, 7th day after inoculation, 405 nm, relative to active compound-free control (100%)
# [3] = Comparison tests, 31 ppm, microtiter test
# [4] = 31 ppm, microtiter plate, seventh day after inoculation, 405 nm, relative to active compound-free control (=100%)
smiles,measurement,setting,value
"Fc1cccc([C@@]2(Cn3nc[nH]c3=S)O[C@@H]2c2ccccc2Cl)c1 (relative stereo) [Example 1, 1-[rel-(2S,3R)-3-(2-chlorophenyl)-2-(3-fluorophenyl)oxiran-2-ylmethyl]-1H-1,2,4-triazole-5(4H)-thione]",Growth in % at 31 ppm with Septtr,Septoria tritici; [1],21%
same,Growth in % at 31 ppm with Septtr,Septoria tritici; [2],21%
"COC(=O)Sc1ncnn1CC1(c2ccc(F)cc2)OC1c1ccccc1Cl (stereo not shown) [WO9742178, p. 55 (4th compound)]",Growth in % at 31 ppm with Septtr,Septoria tritici; [1],100%
same,Growth in % at 31 ppm with Leptno,Leptosphaeria nodorum; [1],100%
"CSc1ncnn1C[C@]1(c2ccc(F)cc2)O[C@@H]1c1ccccc1F [WO9638440, p. 17 (4th compound),]",Growth in % at 31 ppm with Pyrior,Pyriculana oryzae; [3],100%
"CCOP(=S)(OCC)Sc1ncnn1C[C@]1(c2cccc(F)c2)O[C@@H]1c1ccccc1Cl (relative stereo) [Example 10, S-1-[rel-(2S,3R)-3-(2-chlorophenyl)-2-(3-fluorophenyl)oxiran-2-ylmethyl]-1H-1,2,4-triazole-5-yl O,O-diethyl phosphorodithioate]",Growth in % at 31 ppm with Pyrior,Pyriculana oryzae,0%
"N#CSc1ncnn1C[C@]1(c2cccc(F)c2)O[C@@H]1c1ccccc1Cl (relative stereo) [Example 9, 1-[rel-(2S,3R)-3-(2-chlorophenyl)-2-(3-fluorophenyl)oxiran-2-ylmethyl]-5-thiocyanato-1H-1,2,4-triazole]",Growth in % at 31 ppm with Septtr,Septoria tritici; [2],49%
"CSc1ncnn1C[C@]1(c2cccc(F)c2)O[C@@H]1c1ccccc1C (relative stereo) [Example 5, 1-rel-[(2S,3R)-2-(3-fluorophenyl)-3-o-tolyloxiran-2-ylmethyl]-5-(methylthio)-1H-1,2,4-triazole]",Growth in % at 31 ppm with Pyrior,Pyriculana oryzae; [4],0%
"CSc1ncnn1C[C@]1(c2cccc(F)c2)O[C@@H]1c1ccccc1F (relative stereo) [Example 4, 1-[rel-(2S,3R)-3-(2-fluorophenyl)-2-(3-fluorophenyl)oxiran-2-ylmethyl]-5-(methylthio)-1H-1,2,4-triazole]",Growth in % at 31 ppm with Pyrior,Pyriculana oryzae; [4],0%
same,Growth in % at 31 ppm with Pyrior,Pyriculana oryzae; [3],0%
Fc1ccccc1[C@@]1(Cn2nc[nH]c2=S)O[C@@H]1c1ccccc1Cl,Growth in % at 31 ppm with Septtr,Septoria tritici; [1],58%
"COC(=O)Sc1ncnn1C[C@]1(c2cccc(F)c2)O[C@@H]1c1ccccc1Cl (relative stereo) [Example 12, methyl {2-[rel-(2S,3R)-3-(2-chlorophenyl)-2-(3-fluorophenyl)-oxiranylmethyl]-2H-[1,2,4]triazole-3-yl}thiocarbonate]",Growth in % at 31 ppm with Septtr,Septoria tritici; [1],25%
same,Growth in % at 31 ppm with Leptno,Leptosphaeria nodorum; [1],0%
same,Growth in % at 31 ppm with Leptno,"Leptosphaeria nodorum; microtiter plate, 7th day after inoculation, 405 nm, relative to active compound-free control",0%
"CSc1ncnn1C[C@]1(c2cccc(F)c2)O[C@@H]1c1ccccc1Cl (relative stereo) [Example 6, 1-[rel-(2S,3R)-3-(2-chlorophenyl)-2-(3-fluorophenyl)oxiran-2-ylmethyl]-5-(methylthio)-1H-1,2,4-triazole]",Attack in % at 600 ppm with Phakpa K1,Phakopsora pachyrhizi,0%
"Cc1ccccc1[C@H]1O[C@]1(Cn1nc[nH]c1=S)c1cccc(F)c1 (relative stereo) [Example 3, 1-[rel-(2S,3R)-2-(3-fluorophenyl)-3-o-tolyloxiran-2-ylmethyl]-1H-1,2,4-triazole-5(4H)-thione]",Growth in % at 31 ppm with Septtr,Septoria tritici; [2],11%
